Test results taken from patent publication US9115127B2 (AMGEN INC., priority 2010, dated 2015).
Where a name gives a salt, the structure may show the parent alone.

The molecules below were run against T1, wild-type human ALK (cytoplasmic domain, amino acids 1058-1620, N-terminal GST fusion) (Homo sapiens, UniProt Q9UM73) (assay: ALK Inhibition in Enzyme Assay (Lance TR-FRET kinase assay)).
T1 construct: The cytoplasmic domain (amino acids 1058-1620) of wild-type human ALK; GST (N); made in house; host or cells: SF9 insect cells
Format: biochemical
How it was run: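 Purified enzyme phosphorylated a biotinylated peptide substrate for 90 minutes at room temperature. Reactions were stopped with 20 mM EDTA in 50 mM Tris (pH 7.5), 100 mM NaCl, 0.05% BSA, 0.1% Tween-20. Phosphopeptide was detected by TR-FRET with SA-APC and Eu-W1024 anti-phosphotyrosine antibody PT66, excitation 320 nm.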

T1 sequence (Q9UM73 1058-1620): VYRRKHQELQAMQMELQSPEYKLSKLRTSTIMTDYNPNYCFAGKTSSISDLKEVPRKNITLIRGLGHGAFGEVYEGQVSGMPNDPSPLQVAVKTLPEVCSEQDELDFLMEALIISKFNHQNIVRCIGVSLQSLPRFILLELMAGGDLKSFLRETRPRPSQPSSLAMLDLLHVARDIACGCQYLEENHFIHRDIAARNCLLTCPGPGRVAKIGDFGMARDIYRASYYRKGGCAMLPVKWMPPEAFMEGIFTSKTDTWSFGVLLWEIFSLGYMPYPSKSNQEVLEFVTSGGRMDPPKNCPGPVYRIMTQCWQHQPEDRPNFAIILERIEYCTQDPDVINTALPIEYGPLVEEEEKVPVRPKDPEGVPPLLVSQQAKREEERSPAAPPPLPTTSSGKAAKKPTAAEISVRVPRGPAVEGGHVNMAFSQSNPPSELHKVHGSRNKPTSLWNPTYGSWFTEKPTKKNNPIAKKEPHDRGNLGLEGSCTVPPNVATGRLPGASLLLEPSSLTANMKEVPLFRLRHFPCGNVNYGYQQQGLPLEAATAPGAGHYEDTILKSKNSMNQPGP

| IC50 [µM] | SMILES |
| --- | --- |
| < 0.05 | CC(C)NC(=O)[C@H]1CC[C@@H](n2/c(=N/C(=O)c3ccc(F)cc3)[nH]c3cnc(N4CCN(S(C)(=O)=O)CC4)cc32)CC1 [Example 224, (E)-4-Fluoro-N-(1-(cis-4-(isopropylcarbamoyl)cyclohexyl)-6-(4-(methylsulfonyl)-piperazin-1-yl)-1H-imidazo[4,5-c]pyridin-2(3H)-ylidene)benzamide] |
| < 0.05 | O=C(/N=c1\[nH]c2ccc(CN3CCCCC3)cc2n1[C@H]1CC[C@@H](C(=O)NC2CC2)CC1)c1ccc(F)cc1 [Example 31, (E)-N-(1-(cis-4-(Cyclopropylcarbamoyl)cyclohexyl)-6-(piperidin-1-ylmethyl)-1H-benzo[d]imidazol-2(3H)-ylidene)-4-fluorobenzamide] |
| < 0.05 | CC[N+](CC)(CC)Cc1ccc2[nH]/c(=N\C(=O)c3ccc(F)cc3)n([C@H]3CC[C@@H](C(=O)NC(C)C)CC3)c2c1 [Example 187, N,N-Diethyl-N-(((E)-2-(4-fluorobenzoylimino)-3-(cis-4-(isopropylcarbamoyl)cyclohexyl)-2,3-dihydro-1H-benzo[d]imidazol-5-yl)methyl)ethanaminium chloride] |
| < 0.05 | CC(C)NC(=O)[C@H]1CC[C@@H](n2/c(=N/C(=O)c3ccc(F)cc3)[nH]c3ccc(O)cc32)CC1 [Example 154, 4-Fluoro-N-(6-hydroxy-1-(cis-4-(isopropylcarbamoyl)cyclohexyl)-1H-benzo[d]imidazol-2-yl)benzamide] |
| 0.1 to 1 | CC(C)NC[C@H]1CC[C@@H](n2/c(=N/C(=O)c3ccc(F)cc3)[nH]c3ccc(CN4CCCCC4)cc32)CC1 [Example 36, (E)-4-Fluoro-N-(1-(cis-4-((isopropylamino)methyl)cyclohexyl)-6-(piperidin-1-ylmethyl)-1H-benzo[d]imidazol-2(3H)-ylidene)benzamide] |
| < 0.05 | CC(C)NC(=O)[C@H]1CC[C@@H](n2/c(=N/C(=O)c3ccc(F)cc3)[nH]c3ccc(CN4CCC(C)(O)CC4)cc32)CC1 [Example 183, (E)-4-Fluoro-N-(6-((4-hydroxy-4-methylpiperidin-1-yl)methyl)-1-(cis-4-(isopropylcarbamoyl)cyclohexyl)-1H-benzo[d]imidazol-2(3H)-ylidene)benzamide] |
| < 0.05 | CC(C)NC(=O)[C@H]1CC[C@@H](n2/c(=N/C(=O)c3ccc(F)cc3)[nH]c3ccc(CN4CCCC(C(N)=O)C4)cc32)CC1 (stereo partly drawn) [Example 180, 1-(((E)-2-(4-Fluorobenzoylimino)-3-(cis-4-(isopropylcarbamoyl)-cyclohexyl)-2,3-dihydro-1H-benzo[d]imidazol-5-yl)methyl)piperidine-3-carboxamide] |
| < 0.05 | CC(C)NC(=O)[C@H]1CC[C@@H](n2/c(=N/C(=O)c3ccc(F)cc3)[nH]c3ccc(CN4CCOCC4)cc32)CC1 [Example 41, (E)-4-Fluoro-N-(1-(cis-4-(isopropylcarbamoyl)cyclohexyl)-6-(morpholinomethyl)-1H-benzo[d]imidazol-2(3H)-ylidene)benzamide] |
| 0.1 to 1 | CC(=O)[C@H]1CC[C@@H](n2/c(=N/C(=O)c3cccc(F)c3)[nH]c3ccc(CN4CCC(C(C)(C)O)CC4)cc32)CC1 [Example 71, (E)-N-(1-(cis-4-Acetylcyclohexyl)-6-((4-(2-hydroxypropan-2-yl)piperidin-1-yl)methyl)-1H-benzo[d]imidazol-2(3H)-ylidene)-3-fluorobenzamide] |
| < 0.05 | CC(C)(O)C1CCN(Cc2ccc3[nH]/c(=N\C(=O)c4ccc(F)cc4)n([C@H]4CC[C@@H](C(=O)NC5CNC5)CC4)c3c2)CC1 [Example 243] |
| < 0.05 | CC(C)NC(=O)[C@H]1CC[C@@H](n2/c(=N/C(=O)c3ccc(F)cc3)[nH]c3cnc(OCCN4CCCCC4)cc32)CC1 [Example 45, (E)-4-Fluoro-N-(1-(cis-4-(isopropylcarbamoyl)cyclohexyl)-6-(2-(piperidin-1-yl)ethoxy)-1H-imidazo[4,5-c]pyridin-2(3H)-ylidene)benzamide] |
| 0.1 to 1 | C=CCNS(=O)(=O)c1cc(C(=O)Nc2nc3ccc(CN4CCCCC4)cc3n2[C@H]2CC[C@@H](C(=O)O)CC2)ccc1F [Example 34, cis-4-(2-(3-(N-Allylsulfamoyl)-4-fluorobenzamido)-6-(piperidin-1-ylmethyl)-1H-benzo[d]imidazol-1-yl)cyclohexanecarboxylic acid] |
| < 0.05 | CC(C)NC(=O)[C@H]1CC[C@@H](n2/c(=N/C(=O)c3ccc(C#N)cc3)[nH]c3cnc(OCCN4CCC(C(C)(C)O)CC4)cc32)CC1 [Example 129, (E)-4-Cyano-N-(6-(2-(4-(2-hydroxypropan-2-yl)piperidin-1-yl)ethoxy)-1-(cis-4-(isopropylcarbamoyl)cyclohexyl)-1H-imidazo[4,5-c]pyridin-2(3H)-ylidene)benzamide] |
| < 0.05 | CC(C)NC(=O)[C@H]1CC[C@@H](n2/c(=N/C(=O)c3ccc(F)cc3)[nH]c3cnc(OCCn4cncn4)cc32)CC1 [Example 164, (E)-N-(6-(2-(1H-1,2,4-Triazol-1-yl)ethoxy)-1-(cis-4-(isopropylcarbamoyl)cyclohexyl)-1H-imidazo[4,5-c]pyridin-2(3H)-ylidene)-4-fluorobenzamide] |

Continued, molecule first:

| SMILES | IC50 [µM] |
| --- | --- |
| NC(=O)[C@H]1CC[C@@H](n2/c(=N/C(=O)c3ccc(F)cc3)[nH]c3cnc(OCCN4CCCCC4)cc32)CC1 [Example 135, (E)-N-(1-(cis-4-Carbamoylcyclohexyl)-6-(2-(piperidin-1-yl)ethoxy)-1H-imidazo[4,5-c]pyridin-2(3H)-ylidene)-4-fluorobenzamide] | < 0.05 |
| COc1ccc(COc2ccc3nc(NC(=O)c4ccc(F)cc4)n([C@H]4CC[C@@H](C(=O)NC(C)C)CC4)c3c2)cc1 [Example 153, 4-Fluoro-N-(6-((4-methoxybenzyl)oxy)-1-(cis-4-((1-methylethyl)carbamoyl)cyclohexyl)-1H-benzimidazol-2-yl)benzamide] | < 0.05 |
| CC(C)(O)C1CCN(Cc2ccc3[nH]/c(=N\C(=O)c4ccc(F)cc4)n([C@H]4CC[C@@H](C(=O)N5CCCCC5)CC4)c3c2)CC1 [Example 216, (E)-4-Fluoro-N-(6-((4-(2-hydroxypropan-2-yl)piperidin-1-yl)methyl)-1-(cis-4-(piperidine-1-carbonyl)cyclohexyl)-1H-benzo[d]imidazol-2(3H)-ylidene)benzamide] | < 0.05 |
| CC(C)(O)C1CCN(Cc2ccc3[nH]/c(=N\C(=O)c4ccc(F)cc4)n([C@H]4CC[C@]5(CC4)NC(=O)NC5=O)c3c2)CC1 [Example 242, (E)-N-(1-((5S,8S)-2,4-Dioxo-1,3-diazaspiro[4.5]decan-8-yl)-6-((4-(2-hydroxypropan-2-yl)piperidin-1-yl)methyl)-1H-benzo[d]imidazol-2(3H)-ylidene)-4-fluorobenzamide] | 0.1 to 1 |
| CC(C)(O)C1CCN(Cc2ccc3[nH]/c(=N\C(=O)c4ccc(F)cc4)n([C@H]4CC[C@@H](C(=O)N5[C@@H]6CC[C@H]5CNC6)CC4)c3c2)CC1 [Example 217, (E)-N-(1-(cis-4-(3,8-Fiazabicyclo[3.2.1]octane-8-carbonyl)cyclohexyl)-6-((4-(2-hydroxypropan-2-yl)piperidin-1-yl)methyl)-1H-benzo[d]imidazol-2(3H)-ylidene)-4-fluorobenzamide dihydrochloride] | < 0.05 |
| CC(C)NC(=O)[C@H]1CC[C@@H](n2/c(=N/C(=O)c3ccc(F)cc3)[nH]c3ccc(Cl)cc32)CC1 [Example 219, (E)-N-(6-Chloro-1-(cis-4-(isopropylcarbamoyl)cyclohexyl)-1H-benzo[d]imidazol-2(3H)-ylidene)-4-fluorobenzamide] | < 0.05 |
| NC(=O)[C@]1(c2cccc(Br)c2)C[C@@H](n2/c(=N/C(=O)c3ccc(F)cc3)[nH]c3cnc(OCCN4CCCCC4)cc32)C1 [Example 251, (E)-N-(1-(trans-3-(3-Bromophenyl)-3-carbamoylcyclobutyl)-6-(2-(piperidin-1-yl)ethoxy)-1H-imidazo[4,5-c]pyridin-2(3H)-ylidene)-4-fluorobenzamide] | 0.05 to 0.1 |
| CC(C)NC(=O)[C@H]1CC[C@@H](n2/c(=N/C(=O)c3ccc(S(C)(=O)=O)cc3)[nH]c3cnc(OCCN4CCCCC4)cc32)CC1 [Example 120, (E)-N-(1-(cis-4-(Isopropylcarbamoyl)cyclohexyl)-6-(2-(piperidin-1-yl)ethoxy)-1H-imidazo[4,5-c]pyridin-2(3H)-ylidene)-4-(methylsulfonyl)benzamide] | 0.1 to 1 |
| O=C(/N=c1\[nH]c2ccc(CN3CCCCC3)cc2n1[C@H]1CC[C@@H](C(=O)NCC(F)(F)F)CC1)c1ccc(F)cc1 [Example 39, (E)-4-Fluoro-N-(6-(piperidin-1-ylmethyl)-1-(cis-4-(2,2,2-trifluoroethylcarbamoyl)cyclohexyl)-1H-benzo[d]imidazol-2(3H)-ylidene)benzamide] | < 0.05 |
